Read-outs that look alike come from different tables or passages of the source.
Assays:
recombinant human HSP90 = recombinant human HSP90 (Homo sapiens, UniProt P07900); test: HSP90 inhibition assay (Transcreener ADP kit); assay type: biochemical; settings: for decrease of HSP90 catalytic activity: 1.5 µM compound (equivalent doses)
Method: The in vitro inhibitory activity of tested compounds on recombinant human HSP90 was assessed by The Transcreener™ ADP kit (Bellbrook Labs) according to the manufacturer’s protocol. Human recombinant HSP90 protein was incubated with tested compounds in the presence of 250 μM ATP at 37 °C for 30 min, 4°C for 30 min and ATPase activity was stopped via the addition of the stop and detect buffer. Following this, samples were incubated for 1 h at room temperature with the ADP2 Antibody and the ADP Alexa594 Tracer. The fluorescence intensity polarization of samples was measured with a Tecan plate reader (Tecan Infinite® M200). The evaluation was based on means from at least three independent experiments.

PSN-1 cells [1] = test: Cellular oxygen consumption (Mito-ID Extracellular O2 Sensor Kit); assay type: cell-based, human; settings: IC50 concentrations
Method: (§1) Cells were treated with DAP or representative compounds at IC50 concentrations and the changes in OCR and in the intracellular lactate formation were monitored.
PSN-1 cells (2 × 10^5) were seeded in a six-well plate in growth medium (4 mL). After 24 h, cells were incubated for 60 min with IC50 concentrations of tested compounds. Subsequently, oxygen consumption was assessed by Mito-ID® Extracellular O2 Sensor Kit according to manufacturer’s instructions. Fluorescence was measured using a Tecan microplate reader (Ex 340–400 nm, Em 630–680 nm).

PSN-1 cells [2] = test: Mitochondrial membrane potential (Mito-ID kit); assay type: cell-based, human; settings: IC50 concentrations
Method: The ΔΨ was assayed using the Mito-ID® Membrane Potential Kit according to the manufacturer’s instructions (Enzo Life Sciences, Farmingdale, NY, USA) as previously described. Briefly, PSN-1 cells (8 × 10^3 per well) were seeded in 96-well plates; after 24 h, cells were washed with PBS and loaded with Mito-ID Detection Reagent for 30 min at 37 °C in the dark. Afterward, cells were incubated with tested compounds for 60 min. CCCP (Carbonyl cyanide 3-chlorophenyl-hydrazone) was used as the positive control. Fluorescence intensity was estimated using a VICTOR X3 (PerkinElmer, Waltham, MA, USA) plate reader at 490 (excitation) and 590 nm (emission).

recombinant human PDK1 = recombinant human PDK1 (Homo sapiens, UniProt Q15118); test: ADP-Glo kinase assay, PDK1; settings: for effect on enzymatic activity of PDK1: 1.5 µM compound, 30 min preincubation
Method: (§4) The ability of tested compounds to inhibit the activity of PDK 1–4 isoforms was primarily assessed in cell-free experiments by a chemioluminescent assay, the ADPGlo™ Kinase Assay kit from Promega (Promega Corporation, Madison, WI, USA).
(§5) The in vitro inhibitory activity of tested compounds on recombinant human PDK1-4 isoforms (Abcam, Cambridge, MA, USA) was evaluated by using the ADPGlo™ Kinase Assay kit from Promega (Promega Corporation, Madison, WI, USA) following the instructions of the manufacturer. […] The reaction was then started by the addition of substrate/ATP for 60 min at room temperature. Subsequently, ADP-Glo™ reagent was added and incubated for 40 min prior to kinase detection reagent addition. After 30 min, the luminescence was measured with a Tecan plate reader (Tecan Infinite® M200). Raw data were normalized to the values of control wells and luminescence values for each drug dose were expressed as a percentage of the luminescence of control untreated wells. […] The evaluation was based on means from at least three independent experiments.

PSN-1 cells [3] = test: Cellular lactate production; assay type: cell-based, human; settings: IC50 concentrations
Method: as §1
PSN-1 cells (2 × 10^5) were seeded in a six-well plate in a growth medium (4 mL). After 24 h, cells were incubated for 60 min with IC50 concentrations of tested compounds. Changes in lactate production were assessed via colorimetric microplate assay (Lactate assay kit®, Merk, St. Louis, MO, USA) according to the manufacturer’s instructions. The intracellular lactate concentration was detected by measuring the absorbance of each well at 570 nm, using a Bio-Rad 680 microplate reader.

BxPC-3 cells [4] = test: 3D spheroid cytotoxicity, acid phosphatase (APH) assay, BxPC-3; settings: read-out: IC50 ±S.D. BxPC-3 (3D cytotoxicity); spheroids, 72 h, APH test
Method: (§6) The PDAC cancer spheroids were treated with tested compounds for 72 h, and cell viability was assessed by means of the acid phosphatase (APH) assay (Table 3).
(§7) An APH-modified assay was used for determining cell viability in 3D spheroids, as previously described [61]. Briefly, the pre-seeded spheroids were treated with fresh medium containing the compound to be studied at the appropriate concentration (range 2.5–200 μM). Triplicate cultures were established for each treatment. After 72 h, each well was treated with 100 μL of the assay buffer (0.1 M sodium acetate, 0.1% Triton-X-100, supplemented with ImmunoPure p-nitrophenyl phosphate; Sigma Chemical Co., Ltd.) and, following 3 h of incubation, 10 μL of 1 M NaOH solution was added. […] The mean absorbance for each drug dose was expressed as a percentage of the control untreated well absorbance (T/C) and plotted vs. drug concentration. […] The evaluation was based on means from at least four independent experiments.

[5] = tested on: S232 PDH E1 alpha protein (PDHA1) phosphorylation in PSN-1 cells; test: Cellular PDH phosphorylation (ELISA); assay type: cell-based, human; settings: 24 h, IC50 concentrations
Method: As a first step, the ability of representative derivatives to target PDK in intact cancer cells was assessed by evaluating their effect on PDH phosphorylation of PSN-1 cancer cells.
PSN-1 cells (2 × 10^5) were seeded in a six-well plate in growth medium (4 mL). After 24 h, cells were incubated for 24 h with IC50 concentrations of tested compounds. Subsequently, the phosphorylation level of S232 PDH E1 alpha protein (PDHA1) was assessed by ELISA Kit (Abcam) following the manufacturer’s instructions. The amount of phosphorylated S232 PDHA1 protein was detected by measuring the absorbance of each well at 600 nm, using a Bio-Rad 680 microplate reader.

PSN-1 cells [6] = test: 3D spheroid cytotoxicity, acid phosphatase (APH) assay, PSN-1; settings: read-out: IC50 ±S.D. PSN-1 (3D cytotoxicity); spheroids, 72 h, APH test
Method: as §6, §7

PSN-1 cells [7] = test: ROS production (CM-H2DCFDA); assay type: cell-based, human; settings: 5 µM test compounds, antimycin 3 µM as positive control
Method: Consistently, tested compounds, although to different extents, were effective in reducing total cellular sulfhydryl contents in PSN-1-treated cells (Figure 9B).
The production of ROS was measured in PSN-1 cells (10^4 per well) grown for 24 h in a 96-well plate in RPMI medium without phenol red (Sigma Aldrich, Germany). Cells were then washed with PBS and loaded with 10 μM 5-(and-6)-chloromethyl-2′,7′-dichlorodihydrofluorescein diacetate acetylester (CM–H2DCFDA) (Molecular Probes-Invitrogen, Eugene, OR, USA) for 45 min, in the dark. Afterward, cells were washed with PBS and incubated with tested compounds. Fluorescence increase was estimated utilizing the wavelengths of 485 nm (excitation) and 527 nm (emission) in a VICTOR X3 (PerkinElmer, USA) plate reader. Antimycin (3 μM, Sigma Aldrich), a potent inhibitor of Complex III in the electron transport chain, was used as the positive control.

PSN-1 cells [8] = test: Cell death induction, Hoechst 33258 staining; assay type: cell-based, human; settings: 48 h, IC50 doses
Method: As a last mechanistic evaluation, the ability of selected compounds 5i and 6h to induce cancer cell death by means of apoptosis, was also assessed.
PSN-1 cells were seeded into 8-well tissue-culture slides (BD Falcon, Bedford, MA, USA) at 5 × 10^4 cells/well (0.8 cm^2). […] Samples were examined at 5× and 40× magnification in a Zeiss LSM 800 confocal microscope using the Zeiss ZEN 2.3 software system (Zeiss, Oberkochen, Germany).

[9] = tested on: caspase-3 and -8 in PSN-1 cells; test: Caspase-3 and -8 activity; assay type: cell-based, human; settings: 24 h, IC50 doses
Method: Apoptotic cell death can be triggered by a mitochondria-mediated or mitochondrial-independent pathways. In the […], caspase-8 and caspase-3 play an essential role. […] Staurosporine (STS), an alkaloid inducing apoptosis through caspase-3 and -8 activation was used as a positive control. […] Caspase-3 and -8 cleavage reached values similar to that induced by the well-known caspase-dependent apoptosis inducer staurosporine (Figure 10C).
Protein aliquots (100 μg) were stained at 37 °C for 60 min with fluorescent caspase-3 (N-acetyl-Asp-Glu-Val-Asp-AMC, AMC = 7-amino-4-methylcoumarin) or caspase-8 (Ac-Val-Glu-Thr-Asp-AMC) substrates. Substrate hydrolysis was measured after 60 min by monitoring the release of AMC using a a Tecan microplate reader (excitation at 370 nm, emission at 460 nm).

PSN-1 cells [10] = test: TEM analysis of mitochondria; assay type: cell-based, human; settings: 24 h, IC50 concentrations
Method: In addition, TEM analyses were performed on PSN-1 cancer cells after 24 h treatment with IC50 concentrations of the representative compounds 5i and 6h.
About 10^6 PSN-1 cancer cells were seeded in 24-well plates and, after 24 h incubation, were treated with IC50 concentrations of tested compounds and incubated for an additional 24 h. Cells were then washed with cold PBS, harvested, and directly fixed with 1.5% glutaraldehyde buffer with 0.2 M sodium cacodylate, pH 7.4. After washing with buffer and postfixation with 1% OsO4 in 0.2 M cacodylate buffer, specimens were dehydrated and embedded in epoxy resin (Epon Araldite). Sagittal serial sections (1 μm) were counterstained with toluidine blue; thin sections (90 nm) were given contrast by staining with uranyl acetate and lead citrate. Micrographs were taken with a Hitachi H-600 electron microscope (Hitachi, Tokyo, Japan) operating at 75 kV. All photos were typeset in Corel Draw 11.

recombinant human PDK4 = recombinant human PDK4 (Homo sapiens, UniProt Q16654); test: ADP-Glo kinase assay, PDK4; settings: 1.5 µM compound
Method: as §4, §5

BxPC-3 cells [11] = test: 2D cytotoxicity, MTT assay, BxPC-3; assay type: cell-based; settings: Homo sapiens, BXPC-3, 72 h, 72 h, MTT test, KRAS-wild-type BxPC-3; read-out: IC50 ±S.D. BxPC-3 (2D cytotoxicity)
Method: (§2) All newly synthesized compounds were then screened for their cytotoxic activity against two human PDAC cell lines, namely a KRAS-wild-type PDAC cell line (BxPC-3 cells) and a KRAS-mutant PDAC cell line (PSN-1 cells). […] The cytotoxicity parameters, expressed in terms of IC50 and obtained after 72 h of drug exposure by MTT assay, are listed in the Supplementary Materials (Table S2).
(§3) The growth inhibitory effect on tumor cells was evaluated by means of the MTT assay. Briefly, 3–8 × 10^3 cells/well, dependent upon the growth characteristics of the cell line, were seeded in 96-well microplates in growth medium (100 μL). After 24 h, the medium was removed and replaced with a fresh one containing the compound to be studied at the appropriate concentration. Triplicate cultures were established for each treatment. After 72 h, each well was treated with 10 μL of a 5 mg/mL MTT saline solution, and following 5 h of incubation, 100 μL of a sodium dodecyl sulfate (SDS) solution in HCl 0.01 M was added. After overnight incubation, cell growth inhibition was detected by measuring the absorbance of each well at 570 nm using a Bio-Rad 680 microplate reader. The mean absorbance for each drug dose was expressed as a percentage of the control untreated well absorbance and plotted vs. drug concentration. IC50 values, the drug concentrations that reduce the mean absorbance at 570 nm to 50% of those in the untreated control wells, were calculated by the four-parameter logistic (4-PL) model. The evaluation was based on means from at least four independent experiments.

PSN-1 cells [12] = test: 2D cytotoxicity, MTT assay, PSN-1; assay type: cell-based; settings: Homo sapiens, PSN1, 72 h, 72 h, MTT test, KRAS-mutant PSN-1; read-out: IC50 ±S.D. PSN-1 (2D cytotoxicity)
Method: as §2, §3

recombinant human PDK1, sequence (Q15118 29-436): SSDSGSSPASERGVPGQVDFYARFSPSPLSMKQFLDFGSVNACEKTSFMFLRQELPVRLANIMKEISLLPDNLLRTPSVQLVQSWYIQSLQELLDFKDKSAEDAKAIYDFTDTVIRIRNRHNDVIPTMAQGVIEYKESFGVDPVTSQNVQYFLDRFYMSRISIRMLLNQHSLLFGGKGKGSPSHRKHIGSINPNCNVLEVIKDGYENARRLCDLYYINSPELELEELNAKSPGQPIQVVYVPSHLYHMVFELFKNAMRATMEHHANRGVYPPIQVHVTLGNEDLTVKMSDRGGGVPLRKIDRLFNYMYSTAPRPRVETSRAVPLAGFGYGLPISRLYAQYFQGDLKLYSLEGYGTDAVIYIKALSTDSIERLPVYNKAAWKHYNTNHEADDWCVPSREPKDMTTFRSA
recombinant human PDK4, sequence (Q16654 whole entry): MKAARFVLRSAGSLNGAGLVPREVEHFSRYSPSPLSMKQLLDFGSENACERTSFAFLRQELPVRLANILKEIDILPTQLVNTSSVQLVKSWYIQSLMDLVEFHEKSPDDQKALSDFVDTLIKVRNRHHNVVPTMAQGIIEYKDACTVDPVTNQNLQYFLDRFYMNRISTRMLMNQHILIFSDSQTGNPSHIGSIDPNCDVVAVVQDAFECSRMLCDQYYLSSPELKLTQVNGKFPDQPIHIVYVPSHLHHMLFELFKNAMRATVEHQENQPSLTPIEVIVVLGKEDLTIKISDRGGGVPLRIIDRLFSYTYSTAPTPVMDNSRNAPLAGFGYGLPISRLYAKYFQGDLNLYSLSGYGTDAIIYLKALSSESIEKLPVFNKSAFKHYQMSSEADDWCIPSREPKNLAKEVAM

SMILES	decrease of HSP90 catalytic activity (recombinant human HSP90)	cellular oxygen consumption (OCR) (PSN-1 cells [1])	percentage of cells with hypopolarized mitochondrial membrane potential (in words) (PSN-1 cells [2])	IC50 (recombinant human PDK1) [µM]	effect on enzymatic activity of PDK1 (recombinant human PDK1)	lactate production (PSN-1 cells [3])	IC50 (BxPC-3 cells [4]) [µM]	melting point [°C]	reduction in phospho-PDHA1 (S232) levels [5]	IC50 (PSN-1 cells [6]) [µM]	ROS basal level production / hydrogen peroxide formation (PSN-1 cells [7])	IC50 (recombinant human HSP90) [µM]	effect on HSP90 enzyme activity (recombinant human HSP90; 1.5 µM compound)	apoptosis induction (nuclear morphology) (PSN-1 cells [8])	caspase-3 and -8 activation [9]	mitochondrial morphology (TEM) (PSN-1 cells [10])	effect on PDK4 activity (ATP consumption) (recombinant human PDK4)	IC50 (recombinant human PDK1; read-out: IC50 ±S.D. PDK1, four-parameter logistic model, three independent experiments) [µM]	IC50 (BxPC-3 cells [11]) [µM]	IC50 (PSN-1 cells [12]) [µM]
COc1ccc2c(c1)c(-c1nc(N)nnc1-c1cn(C)c3ccc(F)cc13)cn2C [5k]	60–80%	more effective than DAP	significantly increased	0.01 ± 0.003	totally suppressed	more potent than DAP	67.9 ± 3.7	239.5	very similar to that exerted by the reference PDK inhibitor DAP	15.9 ± 2.3	even higher than that provoked by antimycin	–	–	–	–	–	–	–	–	–
COc1ccc2c(c1)c(-c1nnc(N)nc1-c1cn(C)c3ccccc13)cn2C [6h]	–	–	significantly increased	0.08 ± 0.01	totally suppressed	–	33.4 ± 3.6	–	–	24.3 ± 1.4	increase in the ROS basal level production	0.2	completely abolish the enzyme activity	brightly stained nuclei and morphological features typical of cells undergoing apoptosis	significantly activated	dramatic swelling of the mitochondria	–	–	–	–
Cn1cc(-c2nnc(N)nc2-c2cn(C)c3ccccc23)c2cc(Br)ccc21 [6j]	60–80%	–	significantly increased	–	totally suppressed	–	41.2 ± 3.6	266	very similar to that exerted by the reference PDK inhibitor DAP	18.1 ± 2.3	even higher than that provoked by antimycin	–	–	–	–	–	completely blocked	0.07 ± 0.02	0.2 ± 0.04	0.6 ± 0.1
COc1ccc2c(c1)c(-c1nnc(N)nc1-c1c[nH]c3ccc(Br)cc13)cn2C [6s]	60–80%	–	significantly increased	0.09 ± 0.04	totally suppressed	–	29.2 ± 1.4	207.7	–	22.3 ± 2.3	increase in the ROS basal level production	–	–	–	–	–	completely blocked	–	–	–
